Test results as given in a compilation of properties of binary mixtures (doi:10.1021/acs.jced.3c00374).

Experiment: xn = mol fraction of the nth substance listed
Conditions: 100 kPa

OCCNCCO + CCCC[n+]1ccn(C)c1.N#C[S-]
x2 = 0
Conditions	speed of sound [m/s]
288.15 K	1761.3
308.15 K	1700.6
318.15 K	1675.6

CCCC[n+]1ccn(C)c1.N#C[S-] + OCCNCCO
speed of sound [m/s]
Conditions	x1 = 0.1008	x1 = 0.2103	x1 = 0.2993	x1 = 0.4027	x1 = 0.5131	x1 = 0.6087	x1 = 0.7102	x1 = 0.8009	x1 = 0.9102	x1 = 1
288.15 K	1764.4	–	1770.6	1773.9	1777.3	–	1783.5	1786.3	1789.8	1792.6
298.15 K	1732.8	1737	–	1744.5	1748.7	1752.4	–	–	1764	1767.5
308.15 K	1704.9	1709.6	–	1717.8	1722.5	–	1731	–	1739.6	1743.4
318.15 K	1680.4	1685.6	1689.8	1694.8	1700	1704.6	1709.4	1713.7	–	–
